Measured values as given in patent US9133115B2 (ACHILLION PHARMACEUTICALS, INC., priority 2008, dated 2015).

system: HCV replicon; experiment: HCV replicon replication assay (NPT ELISA) in Huh-7 replicon-containing cells; type: cell-based; details: Hepatitis C virus, 72 h; HCV replicon in Huh-7 cells, three days incubation; read-out: EC50
How it was run: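 Huh-7 cells carrying a bicistronic HCV replicon (HCV-IRES-neo, EMCV-IRES-driven NS3–NS5B, 3′-NTR) were seeded at 6000-7500 cells/well, grown 24 h to 60-70% confluence, then treated with graded compound concentrations. Replication was read as NPT level by capture ELISA (rabbit anti-NPTII, Eu-N1 secondary); interferon alpha served as positive control.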

First: COc1ccc2c(O[C@@H]3C[C@@H](C(=O)NC(C)(C)C(=O)NS(=O)(=O)C4CC4)N(C(=O)[C@@H](CC(=O)N4CCCCC4)C(C)(C)C)C3)cc(-c3ccccc3)nc2c1 [Compound 111, (2S,4R)-1-((S)-2-tert-butyl-4-oxo-4-(piperidin-1-yl)butanoyl)-N-(1-(cyclopropane-sulfonamido)-2-methyl-1-oxopropan-2-yl)-4-(7-methoxy-2-phenylquinolin-4-yloxy)pyrrolidine-2-carboxamide]
Second: C=C[C@@H]1C[C@]1(NC(=O)[C@@H]1C[C@@H](Oc2cc(-c3ccccc3)nc3cc(OC)ccc23)CN1C(=O)[C@@H](CC(=O)N1CCCCC1)C(C)(C)C)C(=O)NS(=O)(=O)C1CCCC1 [Compound 105, (2S,4R)-1-((S)-2-tert-butyl-4-oxo-4-(piperidin-1-yl)butanoyl)-N-((1R,2S)-1-(cyclopentyl-sulfonylcarbamoyl)-2-vinylcyclopropyl)-4-(7-methoxy-2-phenylquinolin-4-yloxy)pyrrolidine-2-carboxamide]
The EC50 of the first is higher: 1000 to 10000 nM for the first, < 1000 nM for the second.

`C=C[C@@H]1C[C@]1(NC(=O)[C@@H]1C[C@@H](Oc2cc(-c3ccccc3)nc3cc(OC)ccc23)CN1C(=O)[C@@H](CC(=O)N1CCOCC1)C(C)(C)C)C(=O)NS(=O)(=O)C1CC1` [Compound 48, (2S,4R)-1-((S)-2-tert-butyl-4-morpholino-4-oxobutanoyl)-N-((1R,2S)-1-(cyclo-propylsulfonyl-carbamoyl)-2-vinylcyclopropyl)-4-(7-methoxy-2-phenylquinolin-4-yloxy)pyrrolidine-2-carboxamide] and `C=C[C@@H]1C[C@]1(NC(=O)[C@@H]1C[C@@H](Oc2cc(-c3ccccn3)nc3cc(OC)ccc23)CN1C(=O)[C@@H](CC(=O)N1CCOCC1)C(C)(C)C)C(=O)NS(=O)(=O)C1CC1` [Compound 166, (2S,4R)-1-((S)-2-tert-butyl-4-morpholino-4-oxobutanoyl)-N-((1R,2S)-1-(cyclopropylsulfonyl-carbamoyl)-2-vinylcyclopropyl)-4-(7-methoxy-2-(pyridin-2-yl)quinolin-4-yloxy)pyrrolidine-2-carboxamide] cannot be ordered by EC50: < 1000 nM for the first, < 1000 nM for the second.

`C=CC1C[C@]1(NC(=O)[C@@H]1C[C@@H](Oc2cc(-c3csc(C(C)C)n3)nc3c(C)c(OC)ccc23)CN1C(=O)[C@@H](CC(=O)N1CCCC(F)(F)C1)C(C)(C)C)C(=O)NS(=O)(=O)C1CC1` (stereo partly drawn) [Compound 254, (2S,4R)-1-((S)-2-tert-butyl-4-(3,3-difluoropiperidin-1-yl)-4-oxobutanoyl)-N-((1R)-1-(cyclopropyl-sulfonylcarbamoyl)-2-vinylcyclopropyl)-4-(2-(2-isopropylthiazol-4-yl)-7-methoxy-8-methylquinolin-4-yloxy)pyrrolidine-2-carboxamide] and `C=C[C@@H]1C[C@]1(NC(=O)[C@@H]1C[C@@H](Oc2cc(-c3nc(C(C)C)cs3)nc3cc(OC)ccc23)CN1C(=O)[C@@H](CC(=O)N1CCCC(F)(F)C1)C(C)(C)C)C(=O)NS(=O)(=O)C1CC1` [Compound 251, (2S,4R)-1-((S)-2-tert-butyl-4-(3,3-difluoropiperidin-1-yl)-4-oxobutanoyl)-N-((2S)-1-(cyclopropyl-sulfonylcarbamoyl)-2-vinylcyclopropyl)-4-(2-(4-isopropylthiazol-2-yl)-7-methoxyquinolin-4-yloxy)pyrrolidine-2-carboxamide] cannot be ordered by EC50: < 1000 nM for the first, < 1000 nM for the second.

`C=C[C@@H]1C[C@]1(NC(=O)[C@@H]1C[C@@H](NC(=O)n2c3ccccc3c3ccccc32)CN1C(=O)[C@@H](CC(=O)N1CCCC(F)(F)C1)C(C)(C)C)C(=O)NS(=O)(=O)C1CC1` [Compound 178, N-((3R,5S)-1-((S)-2-tert-butyl-4-(3,3-difluoropiperidin-1-yl)-4-oxobutanoyl)-5-((1R,2S)-1-(cyclo-propylsulfonyl-carbamoyl)-2-vinylcyclopropyl-carbamoyl)pyrrolidin-3-yl)-9H-carbazole-9-carboxamide] and `C=C[C@@H]1C[C@]1(NC(=O)[C@@H]1C[C@@H](OC(=O)n2c3ccccc3c3ccccc32)CN1C(=O)[C@@H](CC(=O)N1CCCCC1)C(C)(C)C)C(=O)NS(=O)(=O)C1CC1` [Compound 99, (3R,5S)-1-((S)-2-tert-butyl-4-oxo-4-(piperidin-1-yl)butanoyl)-5-((1R,2S)-1-(cyclo-propylsulfonyl-carbamoyl)-2-vinyl-cyclopropyl-carbamoyl)pyrrolidin-3-yl 9H-carbazole-9-carboxylate] cannot be ordered by EC50: < 1000 nM for the first, < 1000 nM for the second.

`C=C[C@@H]1C[C@]1(NC(=O)[C@@H]1C[C@@H](Oc2cc(-c3ccccc3)nc3cc(OC)ccc23)CN1C(=O)[C@@H](CC(=O)N1CCC2(CC1)OCCO2)C(C)(C)C)C(=O)NS(=O)(=O)C1CC1` [Compound 75, (2S,4R)-1-((2S)-2-tert-butyl-4-oxo-4-(1,4-dioxa-8-azaspiro[4.5]decan-8-yl)butanoyl)-N-((1R,2S)-1-(cyclopropylsulfonyl-carbamoyl)-2-vinylcyclopropyl)-4-(7-methoxy-2-phenylquinolin-4-yloxy)pyrrolidine-2-carboxamide] and `C=C[C@@H]1C[C@]1(NC(=O)[C@@H]1C[C@@H](Oc2cc(-c3ccccc3)nc3cc(OC)ccc23)CN1C(=O)[C@@H](CC(=O)N1CCC(F)(F)C1)C(C)(C)C)C(=O)NS(=O)(=O)C1CC1` [Compound 89, (2S,4R)-1-((S)-2-tert-butyl-4-(3,3-difluoropyrrolidin-1-yl)-4-oxobutanoyl)-N-((1R,2S)-1-(cyclopropylsulfonyl-carbamoyl)-2-vinylcyclopropyl)-4-(7-methoxy-2-phenylquinolin-4-yloxy)pyrrolidine-2-carboxamide] cannot be ordered by EC50: < 1000 nM for the first, < 1000 nM for the second.

`C=C[C@@H]1C[C@]1(NC(=O)[C@@H]1C[C@@H](Oc2cc(-c3ccccc3)nc3cc(OC)ccc23)CN1C(=O)[C@@H](CC(=O)N1CCCCC1)C(C)(C)C)C(=O)N(C1CC1)S(N)(=O)=O` [Compound 107, (2S,4R)-1-((S)-2-tert-butyl-4-oxo-4-(piperidin-1-yl)butanoyl)-N-((1R,2S)-1-(N-cyclopropyl-sulfamoyl-carbamoyl)-2-vinylcyclopropyl)-4-(7-methoxy-2-phenylquinolin-4-yloxy)pyrrolidine-2-carboxamide] and `C=C[C@@H]1C[C@]1(NC(=O)[C@@H]1C[C@@H](Oc2cc(-c3ccccc3)nc3cc(OC)ccc23)CN1C(=O)[C@@H](CC(=O)N1CCCCC1)C(C)(C)C)C(=O)NS(=O)(=O)C1CCCCC1` [Compound 92, (2S,4R)-1-((S)-2-tert-butyl-4-oxo-4-(piperidin-1-yl)butanoyl)-N-((1R,2S)-1-(cyclo-hexylsulfonyl-carbamoyl)-2-vinyl-cyclopropyl)-4-(7-methoxy-2-phenylquinolin-4-yloxy)pyrrolidine-2-carboxamide] cannot be ordered by EC50: < 1000 nM for the first, < 1000 nM for the second.

`C=C[C@@H]1C[C@]1(NC(=O)[C@@H]1C[C@@H](Oc2cc(-c3csc(NC(C)C)n3)nc3cc(OC)ccc23)CN1C(=O)[C@@H](CC(=O)N1CCOCC1)C(C)(C)C)C(=O)NS(=O)(=O)C1CC1` [Compound 100, (2S,4R)-1-((S)-2-tert-butyl-4-morpholino-4-oxobutanoyl)-N-((1R,2S)-1-(cyclopropylsulfonyl-carbamoyl)-2-vinylcyclopropyl)-4-(2-(2-(isopropyl-amino)thiazol-4-yl)-7-methoxyquinolin-4-yloxy)pyrrolidine-2-carboxamide] and `C=CC1C[C@]1(NC(=O)[C@@H]1C[C@@H](Oc2cc(-c3ccccc3)nc3cc(OC)ccc23)CN1C(=O)[C@@H](CC(=O)N1CCCC(C(F)(F)F)C1)C(C)(C)C)C(=O)NS(=O)(=O)C1CC1` (stereo partly drawn) [Compound 162, (2S,4R)-1-((2S)-2-tert-butyl-4-oxo-4-(3-(trifluoromethyl)pi-peridin-1-yl)butanoyl)-N-((1R,2S)-1-(cyclopropylsulfonyl-carbamoyl)-2-vinylcyclopropyl)-4-(7-methoxy-2-phenylquinolin-4-yloxy)pyrrolidine-2-carboxamide] cannot be ordered by EC50: < 1000 nM for the first, < 1000 nM for the second.

`C=C[C@@H]1C[C@]1(NC(=O)[C@@H]1C[C@@H](Oc2cc(-c3ccccc3)nc3c(OC)cccc23)CN1C(=O)[C@@H](CC(=O)N1CCCCC1)C(C)(C)C)C(=O)NS(=O)(=O)C1CC1` [Compound 231, (2S,4R)-1-((S)-2-tert-butyl-4-oxo-4-(piperidin-1-yl)butanoyl)-N-((2S)-1-(cyclopropyl-sulfonylcarbamoyl)-2-vinylcyclopropyl)-4-(8-methoxy-2-phenylquinolin-4-yloxy)pyrrolidine-2-carboxamide] and `C=C[C@@H]1CC1(NC(=O)[C@@H]1C[C@@H](Oc2cc(-c3ccccn3)nc3c(C)c(OC)ccc23)CN1C(=O)[C@@H](CC(=O)N1CCC(C(F)(F)F)CC1)C(C)(C)C)C(=O)NS(=O)(=O)C1CC1` (mixture of isomers) [Compound 249, (2S,4R)-1-((S)-2-tert-butyl-4-oxo-4-(4-(trifluoro-methyl)piperidin-1-yl)butanoyl)-N-((S)-1-(cyclopropyl-sulfonylcarbamoyl)-2-vinylcyclopropyl)-4-(7-methoxy-8-methyl-2-(pyridin-2-yl)quinolin-4-yloxy)pyrrolidine-2-carboxamide] cannot be ordered by EC50: < 1000 nM for the first, < 1000 nM for the second.

`C=C[C@@H]1C[C@]1(NC(=O)[C@@H]1C[C@@H](NC(=O)c2cc(-c3ccccc3)nc3ccccc23)CN1C(=O)[C@@H](CC(=O)N1CCCC(F)C1)C(C)(C)C)C(=O)NS(=O)(=O)C1CC1` (stereo partly drawn) [Compound 204, N-((3R,5S)-1-((2S)-2-tert-butyl-4-(3-fluoropiperidin-1-yl)-4-oxobutanoyl)-5-((1R,2S)-1-(cyclopropylsulfonyl-carbamoyl)-2-vinyl-cyclopropyl-carbamoyl)pyrrolidin-3-yl)-2-phenylquinoline-4-carboxamide] and `C=C[C@@H]1C[C@]1(NC(=O)[C@@H]1C[C@@H](Oc2cc(-c3ccccc3)nc3cc(OC)ccc23)CN1C(=O)[C@@H](CC(=O)N1CCCCC1c1cc(-c2ccccc2)[nH]n1)C(C)(C)C)C(=O)NS(=O)(=O)C1CC1` (stereo partly drawn) [Compound 232, (2S,4R)-1-((2S)-2-tert-butyl-4-oxo-4-(2-(5-phenyl-1H-pyrazol-3-yl)piperidin-1-yl)butanoyl)-N-((2S)-1-(cyclopropyl-sulfonylcarbamoyl)-2-vinylcyclopropyl)-4-(7-methoxy-2-phenylquinolin-4-yloxy)pyrrolidine-2-carboxamide] cannot be ordered by EC50: < 1000 nM for the first, < 1000 nM for the second.
